{"source": "the NIST ThermoML archive (doi:10.1016/j.fluid.2007.09.021)", "test": "activity coefficient (dimensionless); of the first substance listed, at infinite dilution; xn = mol fraction of the nth substance listed", "settings": "Liquid, x1 = 0", "key": {"[1]": {"settings": "343.15 K, Differential ebulliometry"}, "[2]": {"settings": "398.15 K, Differential ebulliometry"}, "[3]": {"settings": "409.15 K, Differential ebulliometry"}, "[4]": {"settings": "368.15 K, Differential ebulliometry"}, "[5]": {"settings": "378.15 K, Differential ebulliometry"}, "[6]": {"settings": "388.15 K, Differential ebulliometry"}}, "note": "Numbers after ± are expanded uncertainties.", "data": [{"smiles": "CCc1ccccc1", "note": "[ethylbenzene] + CCO", "values": [{"measurement": "activity coefficient", "setting": "323.15 K, Differential ebulliometry", "value": "6.86 ± 0.14"}, {"measurement": "activity coefficient", "setting": "333.15 K, Differential ebulliometry", "value": "6.53 ± 0.14"}, {"measurement": "activity coefficient", "setting": "[1]", "value": "6.19 ± 0.12"}, {"measurement": "activity coefficient", "setting": "351.15 K, Differential ebulliometry", "value": "5.9 ± 0.12"}]}, {"smiles": "CCc1ccccc1", "note": "[ethylbenzene] + CCCCCO", "values": [{"measurement": "activity coefficient", "setting": "323.15 K, Chromatography", "value": "3.37 ± 0.12"}]}, {"smiles": "CO", "note": "[methanol] + CCc1ccccc1", "values": [{"measurement": "activity coefficient", "setting": "293.15 K, Chromatography", "value": "26.2 ± 1.3"}, {"measurement": "activity coefficient", "setting": "303.15 K, Chromatography", "value": "21.4 ± 1.1"}, {"measurement": "activity coefficient", "setting": "313.15 K, Chromatography", "value": "18 ± 1"}, {"measurement": "activity coefficient", "setting": "323.15 K, Chromatography", "value": "15 ± 0.8"}]}, {"smiles": "CCCCO", "note": "[butan-1-ol] + CCc1ccccc1", "values": [{"measurement": "activity coefficient", "setting": "303.15 K, Chromatography", "value": "11.8 ± 0.6"}, {"measurement": "activity coefficient", "setting": "313.15 K, Chromatography", "value": "9.49 ± 0.5"}, {"measurement": "activity coefficient", "setting": "323.15 K, Chromatography", "value": "7.63 ± 0.39"}, {"measurement": "activity coefficient", "setting": "[2]", "value": "2.55 ± 0.26"}, {"measurement": "activity coefficient", "setting": "[3]", "value": "2.24 ± 0.14"}]}, {"smiles": "CCO", "note": "[ethanol] + CCc1ccccc1", "values": [{"measurement": "activity coefficient", "setting": "293.15 K, Chromatography", "value": "20.1 ± 0.8"}, {"measurement": "activity coefficient", "setting": "303.15 K, Chromatography", "value": "16.2 ± 0.7"}, {"measurement": "activity coefficient", "setting": "313.15 K, Chromatography", "value": "13.7 ± 0.7"}, {"measurement": "activity coefficient", "setting": "323.15 K, Chromatography", "value": "11.2 ± 0.4"}]}, {"smiles": "CCCO", "note": "[propan-1-ol] + CCc1ccccc1", "values": [{"measurement": "activity coefficient", "setting": "293.15 K, Chromatography", "value": "15.8 ± 0.8"}, {"measurement": "activity coefficient", "setting": "303.15 K, Chromatography", "value": "12.9 ± 0.7"}, {"measurement": "activity coefficient", "setting": "313.15 K, Chromatography", "value": "10.3 ± 0.7"}, {"measurement": "activity coefficient", "setting": "323.15 K, Chromatography", "value": "8.7 ± 0.44"}]}, {"smiles": "CCc1ccccc1", "note": "[ethylbenzene] + CCCCO", "values": [{"measurement": "activity coefficient", "setting": "323.15 K, Chromatography", "value": "3.84 ± 0.15"}]}, {"smiles": "CCc1ccccc1", "note": "[ethylbenzene] + CO", "values": [{"measurement": "activity coefficient", "setting": "308.15 K, Differential ebulliometry", "value": "12.8 ± 0.2"}, {"measurement": "activity coefficient", "setting": "318.15 K, Differential ebulliometry", "value": "12.2 ± 0.2"}, {"measurement": "activity coefficient", "setting": "328.15 K, Differential ebulliometry", "value": "11.8 ± 0.2"}, {"measurement": "activity coefficient", "setting": "337.15 K, Differential ebulliometry", "value": "11.4 ± 0.2"}]}, {"smiles": "CCc1ccccc1", "note": "[ethylbenzene] + CCCCCCO", "values": [{"measurement": "activity coefficient", "setting": "323.15 K, Chromatography", "value": "2.77 ± 0.11"}]}, {"smiles": "CCc1ccccc1", "note": "[ethylbenzene] + CCCO", "values": [{"measurement": "activity coefficient", "setting": "[1]", "value": "4.48 ± 0.08"}, {"measurement": "activity coefficient", "setting": "353.15 K, Differential ebulliometry", "value": "4.21 ± 0.08"}, {"measurement": "activity coefficient", "setting": "363.15 K, Differential ebulliometry", "value": "3.98 ± 0.08"}, {"measurement": "activity coefficient", "setting": "370.15 K, Differential ebulliometry", "value": "3.8 ± 0.08"}]}, {"smiles": "CCCCCO", "note": "[pentan-1-ol] + CCc1ccccc1", "values": [{"measurement": "activity coefficient", "setting": "[4]", "value": "3.62 ± 0.08"}, {"measurement": "activity coefficient", "setting": "[5]", "value": "3.19 ± 0.06"}, {"measurement": "activity coefficient", "setting": "[6]", "value": "2.89 ± 0.06"}, {"measurement": "activity coefficient", "setting": "[2]", "value": "2.57 ± 0.06"}, {"measurement": "activity coefficient", "setting": "[3]", "value": "2.29 ± 0.06"}]}, {"smiles": "CCCCCCO", "note": "[hexan-1-ol] + CCc1ccccc1", "values": [{"measurement": "activity coefficient", "setting": "[4]", "value": "3.25 ± 0.06"}, {"measurement": "activity coefficient", "setting": "[5]", "value": "2.95 ± 0.18"}, {"measurement": "activity coefficient", "setting": "[6]", "value": "2.62 ± 0.06"}, {"measurement": "activity coefficient", "setting": "[2]", "value": "2.43 ± 0.1"}, {"measurement": "activity coefficient", "setting": "[3]", "value": "2.11 ± 0.04"}]}]}
